{
  "source": "patent US20080293572A1",
  "about": "“Herbicidal Mixtures” (BASF SE, priority 2005, published 2008)",
  "assay_in_all_cases": "Greenhouse post-emergence herbicidal trial",
  "key": {"SOLNI": {"system": "SOLNI", "format": "in vivo, Solanum nigrum", "conditions": "SOLNI; a) 3.125 g/ha, MSO or COC 1.25% where in mixture, scale 0-100", "excerpt": "(§1) The culture vessels used were plastic flowerpots filled, as substrate, with sandy loam comprising about 3% of humus. The seeds of the test plants were sown separated according to species.\n(§2) For the post-emergence treatment, the test plants were initially cultivated to a height of 3-17 cm according to their habit and only then treated with the active compounds, which had been suspended or emulsified in water. To this end, the test plants were either sown directly and cultivated in the same vessels, or they were initially cultivated separately as seedlings and transplanted into the test vessels a few days prior to the treatment. According to the species, the plants were kept at temperatures of from 15° C. to 25° C. or from 20 to 35° C. The trial period extended over 3 weeks. During this time the plants were tended and their response to the individual treatments was evaluated.\n(§3) The application in the greenhouse was carried out at a spray liquor application rate of 200 l/ha."}, "XANST": {"system": "XANST", "format": "in vivo, Xanthium strumarium", "conditions": "XANST; a) 12.5 g/ha, MSO or COC 1.25% where in mixture, scale 0-100", "excerpt": "as §1, §2, §3"}, "AMBEL": {"system": "AMBEL", "format": "in vivo, Ambrosia elatior", "conditions": "AMBEL; a) 3.125 g/ha, MSO or COC 1.25% where in mixture, scale 0-100", "excerpt": "as §1, §2, §3"}, "ECHCG": {"system": "ECHCG", "format": "in vivo, Echinochloa crus-galli", "conditions": "MSO or COC 1.25% where in mixture, scale 0-100", "excerpt": "as §1, §2, §3"}, "PANDI": {"system": "PANDI", "format": "in vivo, Panicum dichotomiflorum", "conditions": "PANDI; a) 25 g/ha, MSO or COC 1.25% where in mixture, scale 0-100", "excerpt": "as §1, §2, §3"}, "PANMI": {"system": "PANMI", "format": "in vivo, Panicum milliaceum", "conditions": "PANMI; a) 12.5 g/ha, MSO or COC 1.25% where in mixture, scale 0-100", "excerpt": "as §1, §2, §3"}, "SORBI": {"system": "SORBI", "format": "in vivo, Sorghum bicolor", "conditions": "SORBI; a) 25 g/ha, MSO or COC 1.25% where in mixture, scale 0-100", "excerpt": "as §1, §2, §3"}, "HELAN": {"system": "HELAN", "format": "in vivo, Helianthus annua", "conditions": "HELAN; a) 6.25 g/ha, MSO or COC 1.25% where in mixture, scale 0-100", "excerpt": "as §1, §2, §3"}, "SETVI": {"system": "SETVI", "format": "in vivo, Setaria viridis", "conditions": "SETVI; a) 12.5 g/ha, MSO or COC 1.25% where in mixture, scale 0-100", "excerpt": "as §1, §2, §3"}},
  "data": [
    {"smiles": "Cc1c(C(=O)c2cnn(C)c2O)ccc(S(C)(=O)=O)c1C1=NOCC1", "note": "[a)]", "values": [
      {"measurement": "observed effect", "setting": "SOLNI", "value": 30},
      {"measurement": "observed effect", "setting": "XANST", "value": 65},
      {"measurement": "observed effect", "setting": "AMBEL", "value": 60},
      {"measurement": "observed effect", "setting": "ECHCG; ECHCG; a) 12.5 g/ha", "value": 0},
      {"measurement": "observed effect", "setting": "ECHCG; ECHCG; a) 25 g/ha", "value": 0},
      {"measurement": "observed effect", "setting": "PANDI", "value": 0},
      {"measurement": "observed effect", "setting": "PANMI", "value": 75},
      {"measurement": "observed effect", "setting": "SORBI", "value": 10},
      {"measurement": "observed effect", "setting": "HELAN", "value": 30},
      {"measurement": "observed effect", "setting": "SETVI", "value": 60}
    ]}
  ]
}
